The text below walks through data of patent publication US20230391772A1, “METHODS AND COMPOSITIONS FOR TARGETED PROTEIN DEGRADATION” (Ranok Therapeutics (Hangzhou) Co. Ltd., priority 2020, published 2023).

SMILES strings stand for the structures.

The target in assay [1] is KRAS(G12C) (Homo sapiens, UniProt P01116, G12C). The assay can be described thus: KRAS(G12C)/SOS1 homogeneous time-resolved fluorescence (HTRF) assay. Details: purchased Cisbio 63ADK000CB16PEG. The settings on record: absence of GTP, 4° C. for 3 hr, read-out: KRAS (G12C) binding. The essentials:
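HTRF kit measuring compound-induced block of KRAS(G12C)-SOS1 interaction without GTP. Compounds tested as 3-fold serial dilutions down to 1.02 nM, incubated with reaction components 3 h at 4 °C in sealed plates before fluorescence read.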

Assay [2] relates to NCI-H358 human non-small cell lung cancer. Nature of the assay: NCI-H358 CCK-8 proliferation assay. Type of assay: cell-based. The note with it: NCI-H358 cells, 72 hr. The essentials: (§1)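 Compounds were tested as a 3-fold series from 20 μM down to 1.02 nM in CCK-8 absorbance assays. The lines used were NCI-H23 and NCI-H358, each with 1 KRAS(G12C) copy, and MIA PaCa-2 with 2 copies. Inhibition was derived relative to DMSO controls, with a no-cell blank subtracted.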
(In general: Tetrazolium dyes change colour on reduction, which living cells bring about.)

Assay [3] has as its target T1, HSP90a protein (Homo sapiens, UniProt P07900).
T1 construct: purchased BPS Bioscience 50298
The assay can be described thus: HSP90α-binding fluorescent polarization (FP) assay, BODIPY-labeled RNK04010 probe. The settings on record: FP competition with RNK04010 (BODIPY-labeled), 5 nM, 300 min at 25° C. The essentials: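 Displacement of a 5 nM fluorescent HSP90 ligand from the N-terminal HSP90a domain by FP. Incubation ran at 25° C: 120 min for the FITC-geldanamycin tracer, 300 min for the BODIPY-conjugated triazolone RNK04010.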

The subject of assay [4] is NCI-H23 human non-small cell lung cancer. Nature of the assay: NCI-H23 CCK-8 proliferation assay. Type of assay: cell-based. The settings on record: NCI-H23 cells, 72 hr. Here is the method: The following cancer cell lines were employed: BT-474 human breast carcinoma (ATCC, #HTB-20); MIA PaCa-2 human pancreatic carcinoma [2 copies KRAS(G12C)](ATCC, #CRL-1420); NCI-H23 human non-small cell lung cancer [1 copy KRAS(G12C)](ATCC, #CRL-5800); NCI-H358 human non-small cell lung cancer [1 copy KRAS(G12C)](ATCC, #CRL-5807); LU65A human lung carcinoma (Pharmaron, Beijing, China). Cell lines were cultured essentially according to ATCC and Pharmaron recommendations.
Cancer Cell Line Proliferation (CCK-8) Assays
3-fold serial dilutions of each test compound were prepared ranging from 20 μM to 1.02 nM.
% Inhibition=100−(D−B)/(S−B)*100%. • S: Absorbance of cells treated with DMSO • D: Absorbance of compound-treated cells • B: Absorbance of medium with DMSO without cells

For assay [5], the system named is MIA PaCa-2 human pancreatic carcinoma. Nature of the assay: MIA PaCa-2 CCK-8 proliferation assay. It counts as cell-based. The settings on record: Homo sapiens, MIA PaCa-2, 72 h, MIA PaCa-2 cells. The essentials:
as §1

Chain of KRAS(G12C) (P01116 1-188 isoform P01116-2 G12C): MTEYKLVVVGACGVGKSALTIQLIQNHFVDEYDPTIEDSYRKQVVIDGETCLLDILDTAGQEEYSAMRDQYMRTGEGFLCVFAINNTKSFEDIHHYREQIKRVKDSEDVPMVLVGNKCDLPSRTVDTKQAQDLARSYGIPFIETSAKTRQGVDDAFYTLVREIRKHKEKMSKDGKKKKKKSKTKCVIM

Regarding `CCC(=O)N1CCN(c2nc(NCCC(=O)N3CCC(CN4CCN(Cc5ccc(-n6c(C(=O)NC(C)C)nnc6-c6cc(CC)c(O)cc6O)cc5)CC4)CC3)nc3c2CCN(c2cc(O)cc4ccccc24)C3)CC1` [Compound 64, 5-(5-ethyl-2,4-dihydroxyphenyl)-4-(4-((4-((1-(3-((7-(3-hydroxynaphthalen-1-yl)-4-(4-propionylpiperazin-1-yl)-5,6,7,8-tetrahydropyrido[3,4-d]pyrimidin-2-yl)amino)propanoyl)piperidin-4-yl)methyl)piperazin-1-yl)methyl)phenyl)-N-isopropyl-4H-1,2,4-triazole-3-carboxamide, trifluoroacetic acid], the IC50 in assay [1] is greater than 1000 nM; in assay [3], 100 to 1000 nM. The EC50 in assay [2] and in assay [4] was 100 to 1000 nM in each case.

Turning to `CCC(=O)N1CCN(c2nc(NCCC(=O)NCc3ccc(CN4CCC(Cc5ccc(-n6c(C(=O)NCC(F)(F)F)nnc6-c6cc(C(C)C)c(O)cc6O)cc5)CC4)cc3)nc3c2CCN(c2cc(O)cc4ccccc24)C3)CC1` [Compound 62, 5-(2,4-dihydroxy-5-isopropylphenyl)-4-(4-((1-(4-((3-((7-(3-hydroxynaphthalen-1-yl)-4-(4-propionylpiperazin-1-yl)-5,6,7,8-tetrahydropyrido[3,4-d]pyrimidin-2-yl)amino)propanamido)methyl)benzyl)piperidin-4-yl)methyl)phenyl)-N-(2,2,2-trifluoroethyl)-4H-1,2,4-triazole-3-carboxamide, trifluoroacetic acid], the IC50 in assay [1] was greater than 1000 nM; in assay [3], 100 to 1000 nM. Besides, the EC50 in assay [2] and in assay [4] was 100 to 1000 nM throughout.

Take `CCC(=O)N1CCN(c2nc(NCCC(=O)N3CCC(CN4CCN(Cc5ccc(-n6c(C(=O)NC7(C)CC7)nnc6-c6cc(CC)c(O)cc6O)cc5)CC4)CC3)nc3c2CCN(c2cc(O)cc4ccccc24)C3)CC1` [Compound 120, 5-(5-ethyl-2,4-dihydroxyphenyl)-4-(4-((4-((1-(3-((7-(3-hydroxynaphthalen-1-yl)-4-(4-propionylpiperazin-1-yl)-5,6,7,8-tetrahydropyrido[3,4-d]pyrimidin-2-yl)amino)propanoyl)piperidin-4-yl)methyl)piperazin-1-yl)methyl)phenyl)-N-(1-methylcyclopropyl)-4H-1,2,4-triazole-3-carboxamide, trifluoroacetic acid]: the half-maximal effective concentration (EC50) was less than 100 nM in assay [2], 100 to 1000 nM in assay [5] and 100 to 1000 nM in assay [4]. For the same molecule, the IC50 in assay [3] was in the range of 100 to 1000 nM.

Take `C=CC(=O)N1CCN(c2nc(NCCC(=O)NCc3ccc(CN4CCC(Cc5ccc(-n6c(C(=O)NCC(F)(F)F)nnc6-c6cc(C(C)C)c(O)cc6O)cc5)CC4)cc3)nc3c2CCN(c2cc(O)cc4ccccc24)C3)CC1` [Compound 25, 4-(4-((1-(4-((3-((4-(4-acryloylpiperazin-1-yl)-7-(3-hydroxynaphthalen-1-yl)-5,6,7,8-tetrahydropyrido[3,4-d]pyrimidin-2-yl)amino)propanamido)methyl)benzyl)piperidin-4-yl)methyl)phenyl)-5-(2,4-dihydroxy-5-isopropylphenyl)-N-(2,2,2-trifluoroethyl)-4H-1,2,4-triazole-3-carboxamide, trifluoroacetic acid]: the EC50 in assay [2], in assay [5] and in assay [4] was 100 to 1000 nM each time. The molecule also returned an IC50 in assay [3] of less than 100 nM.

As for `CCNC(=O)c1nnc(-c2cc(CC)c(O)cc2O)n1-c1ccc(CN2CCN(CC3CCN(C(=O)CCNc4nc5c(c(N6CCN(C(=O)CC)CC6)n4)CCN(c4cc(O)cc6ccccc46)C5)CC3)CC2)cc1` [Compound 121, N-ethyl-5-(5-ethyl-2,4-dihydroxyphenyl)-4-(4-((4-((1-(3-((7-(3-hydroxynaphthalen-1-yl)-4-(4-propionylpiperazin-1-yl)-5,6,7,8-tetrahydropyrido[3,4-d]pyrimidin-2-yl)amino)propanoyl)piperidin-4-yl)methyl)piperazin-1-yl)methyl)phenyl)-4H-1,2,4-triazole-3-carboxamide, trifluoroacetic acid], the EC50 was less than 100 nM in assay [2], 100 to 1000 nM in assay [5] and 100 to 1000 nM in assay [4]. Also, the IC50 in assay [3] was less than 100 nM.

Regarding `CC(=O)N1CCN(c2nc(NCCC(=O)N3CCC(CN4CCN(Cc5ccc(-n6c(O)nnc6-c6cc(C(C)C)c(O)cc6O)cc5)CC4)CC3)nc3c2CCN(c2cc(O)cc4ccccc24)C3)CC1` [Compound 21, 3-((4-(4-acetylpiperazin-1-yl)-7-(3-hydroxynaphthalen-1-yl)-5,6,7,8-tetrahydropyrido[3,4-d]pyrimidin-2-yl)amino)-1-(4-((4-(4-(3-(2,4-dihydroxy-5-isopropylphenyl)-5-hydroxy-4H-1,2,4-triazol-4-yl)benzyl)piperazin-1-yl)methyl)piperidin-1-yl)propan-1-one, trifluoroacetic acid], the EC50 in assay [2], in assay [5] and in assay [4] was 100 to 1000 nM throughout. This molecule also showed an IC50 in assay [3] of less than 100 nM.

For the molecule `CCC(=O)N1CCN(c2nc(NCCC(=O)N3CCC(CN4CCN(Cc5ccc(-n6c(C(=O)NC7CC7)nnc6-c6cc(CC)c(O)cc6O)cc5)CC4)CC3)nc3c2CCN(c2cc(O)cc4ccccc24)C3)CC1` [Compound 116, N-cyclopropyl-5-(5-ethyl-2,4-dihydroxyphenyl)-4-(4-((4-((1-(3-((7-(3-hydroxynaphthalen-1-yl)-4-(4-propionylpiperazin-1-yl)-5,6,7,8-tetrahydropyrido[3,4-d]pyrimidin-2-yl)amino)propanoyl)piperidin-4-yl)methyl)piperazin-1-yl)methyl)phenyl)-4H-1,2,4-triazole-3-carboxamide, trifluoroacetic acid], the EC50 in assay [2], in assay [5] and in assay [4] was 100 to 1000 nM each time. The IC50 in assay [3] is less than 100 nM.

With `CCC(=O)N1CCN(c2nc(NCCC(=O)N3CCC(CN4CCN(Cc5ccc(-n6c(C(=O)NC(C)C(F)(F)F)nnc6-c6cc(CC)c(O)cc6O)cc5)CC4)CC3)nc3c2CCN(c2cc(O)cc4ccccc24)C3)CC1` (centres unmarked) [Compound 119, 5-(5-ethyl-2,4-dihydroxyphenyl)-4-(4-((4-((1-(3-((7-(3-hydroxynaphthalen-1-yl)-4-(4-propionylpiperazin-1-yl)-5,6,7,8-tetrahydropyrido[3,4-d]pyrimidin-2-yl)amino)propanoyl)piperidin-4-yl)methyl)piperazin-1-yl)methyl)phenyl)-N-(1,1,1-trifluoropropan-2-yl)-4H-1,2,4-triazole-3-carboxamide, trifluoroacetic acid], the EC50 in assay [2] and in assay [4] was 100 to 1000 nM each time. This molecule displayed an IC50 in assay [3] of 100 to 1000 nM.

For the molecule `CC(=O)N1CCN(c2nc(NCCC(=O)N3CCC(Cc4ccc(CN(C)Cc5ccc(-n6c(C(=O)NCC(F)(F)F)nnc6-c6cc(C(C)C)c(O)cc6O)cc5)cc4)CC3)nc3c2CCN(c2cc(O)cc4ccccc24)C3)CC1` [Compound 112, 4-(4-(((4-((1-(3-((4-(4-acetylpiperazin-1-yl)-7-(3-hydroxynaphthalen-1-yl)-5,6,7,8-tetrahydropyrido[3,4-d]pyrimidin-2-yl)amino)propanoyl)piperidin-4-yl)methyl)benzyl)(methyl)amino)methyl)phenyl)-5-(2,4-dihydroxy-5-isopropylphenyl)-N-(2,2,2-trifluoroethyl)-4H-1,2,4-triazole-3-carboxamide, trifluoroacetic acid], the EC50 in assay [2], in assay [5] and in assay [4] was 100 to 1000 nM each time. Also, in assay [3], the IC50 is 100 to 1000 nM.

As to `C=CC(=O)N1CCN(c2nc(NCCC(=O)N3CCC(CN4CCN(Cc5ccc(-n6c(O)nnc6-c6cc(C(C)C)c(O)cc6O)cc5)CC4)CC3)nc3c2CCN(c2cccc4cccc(Cl)c24)C3)C[C@H]1CC#N` [Compound 87, (R)-2-(1-acryloyl-4-(7-(8-chloronaphthalen-1-yl)-2-((3-(4-((4-(4-(3-(2,4-dihydroxy-5-isopropylphenyl)-5-hydroxy-4H-1,2,4-triazol-4-yl)benzyl)piperazin-1-yl)methyl)piperidin-1-yl)-3-oxopropyl)amino)-5,6,7,8-tetrahydropyrido[3,4-d]pyrimidin-4-yl)piperazin-2-yl)acetonitrile, trifluoroacetic acid], the EC50 in assay [2] and in assay [4] was 100 to 1000 nM in each case. In assay [3], this molecule gave an IC50 of 100 to 1000 nM.

In general, EC50 refers to the concentration at which the effect is half-maximal. A higher EC50 goes with lower potency in that assay.
